The subject of the assay is blood pressure of anesthetized Sprague-Dawley IGS male rats. The assay can be described thus: Hypotensive activity in anesthetized rats, invasive blood pressure measurement after intravenous administration. Conditions: for Hypotensive activity (dose/rat) 10 nmol / Hypotensive activity (dose/rat) 30 nmol / Hypotensive activity (dose/rat) 100 nmol: anesthetized rats, intravenous; for Hypotensive activity (dose/rat) 10 nmol: 10 nmol/rat; for Hypotensive activity (dose/rat) 30 nmol: 30 nmol/rat; for Hypotensive activity (dose/rat) 100 nmol: 100 nmol/rat. The assay is classed as in vivo, rat. As to the method:
50 mg/kg pentobarbital sodium was intraperitoneally administered to 8- to 10-week-old Sprague-Dawley IGS male rats (Charles River Laboratories Japan, Inc.) for anesthesia. Thereafter, a tracheal cannula (PE 250), a femoral vein cannula (PE50), and a femoral artery cannula (PESO) were inserted into each rat. The femoral artery cannula was connected with a pressure transducer (PE23XL; manufactured by Nihon Kohden Corporation), and an apparatus formed by incorporating a blood pressure measurement unit (AP-641G; manufactured by Nihon Kohden Corporation) and an instantaneous heart rate measurement unit (AT-601G; manufactured by Nihon Kohden Corporation) into a multi-purpose preamplifier (RP-6004; manufactured by Nihon Kohden Corporation) was used to record the blood pressure and heart rate of each rat. The blood pressure was calibrated using a mercury manometer included in a stand-type electromanometer (MP-25S; manufactured by Nihon Kohden Corporation). The recording paper was adjusted, such that 10 mm or 20 mm on the recording paper corresponded to 100 mmHg.
Each peptide was dissolved in a concentration of 1 mM or 10 mM in a 0.1% acetic acid solution to prepare a peptide solution. Thereafter, depending on dose, it was diluted with a normal saline containing 0.1% bovine serum albumin (Fr.V). In the case of the dose of 10 nmol/rat, a 1 mM peptide solution was 10 times diluted, and 100 μl of the diluted solution was administered. In the case of the dose of 30 nmol/rat, a 1 mM peptide solution was 10 times diluted, and 300 μL, of the diluted solution was administered. In the case of the dose of 100 nmol/rat, a 10 mM peptide solution was 10 times diluted, and 100 μL of the diluted solution was administered. Each peptide was intravenously administered via the femoral vein cannula, and the systolic blood pressure, diastolic blood pressure, and heart rate were then measured.
Various HC021 derivative peptides were synthesized in accordance with Example 1, and such peptide was then administered to each rat at a dose of 10 nmol/rat, 30 nmol/rat, or 100 mol/rat by the method described in Example 2. Thereafter, the hypotensive activity of each derivative peptide was measured. […] The strength of such activity was determined using a median of activity in repeated experiments. In addition, in order to make a comparison among the activities of various derivative peptides, the strength of hypotensive activity was defined as follows.
Strength of Hypotensive Activity
Extremely strong activity (+++): A decrease in systolic blood pressure is 30 mmHg or more, and the time required for recovery is 5 minutes or more.
Strong activity (++): A decrease in systolic blood pressure is 20 mmHg or more and less than 30 mmHg, or the time required for recovery is less than 5 minutes.
Activity observed (+): A decrease in systolic blood pressure is less than 20 mmHg.
Activity not observed (−)
Various HC021 peptide sequence-substituted products were synthesized in accordance with Example 1, and their hypotensive activity was then measured according to the method of Example 3.

Where no end group is shown, it is not given here.

With “NRDLFFRRLQAYFK (not fully specified (C-terminus)) [Compound 15]”, under “Table 2”, the “Hypotensive activity (dose/rat) 10 nmol” value is on record as “−”, the “Hypotensive activity (dose/rat) 30 nmol” value is given as “−” and the “Hypotensive activity (dose/rat) 100 nmol” value is on record as “+ (Activity observed (+): A decrease in systolic blood pressure is less than 20 mmHg.)”.

Take “ATVRNEDKWKPLNNPRNRDLFFRRLQAYFK (not fully specified) [Compound 8]”: for the setting “Table 2”, the “Hypotensive activity (dose/rat) 30 nmol” value is reported as “−”; the “Hypotensive activity (dose/rat) 100 nmol” value is “+++ (Extremely strong activity (+++): A decrease in systolic blood pressure is 30 mmHg or more, and the time required for recovery is 5 minutes or more.)”.

For the substance “ATVRNEDKWKPLNNPRNRDLFFRRLQAYF [Compound 9]”, under “Table 2”, the “Hypotensive activity (dose/rat) 30 nmol” value is given as “−”; the “Hypotensive activity (dose/rat) 100 nmol” value was “+++ (Extremely strong activity (+++): A decrease in systolic blood pressure is 30 mmHg or more, and the time required for recovery is 5 minutes or more.)”.

On to “DLFFRRLQAYFK-amide (DLFFRRLQAYFK-NH2) [Compound 17]”, for which, for the setting “Table 2”, the “Hypotensive activity (dose/rat) 10 nmol” value is “−”; the “Hypotensive activity (dose/rat) 30 nmol” value was “++ (Strong activity (++): A decrease in systolic blood pressure is 20 mmHg or more and less than 30 mmHg, or the time required for recovery is less than 5 minutes.)”; the “Hypotensive activity (dose/rat) 100 nmol” value was “+++ (Extremely strong activity (+++): A decrease in systolic blood pressure is 30 mmHg or more, and the time required for recovery is 5 minutes or more.)”. Further, the “dose dependence of hypotensive activity” value (anesthetized rats, 10, 30, 100 nmol/rat) was “enhanced their hypotensive activity in a dose-dependent manner”.

Regarding “acetyl-ATVRNEDKWKPLNNPRNRDLFFRRLQAYFK-amide [Compound 31]”, for the setting “Table 2”, the “Hypotensive activity (dose/rat) 30 nmol” value is “+++ (Extremely strong activity (+++): A decrease in systolic blood pressure is 30 mmHg or more, and the time required for recovery is 5 minutes or more.)”.

As for “LFFRRLQAYFKGRGLDLGTFPNPFPTNENPR [Compound 29]”, the “Hypotensive activity (dose/rat) 10 nmol” value (Table 2) is “+++ (Extremely strong activity (+++): A decrease in systolic blood pressure is 30 mmHg or more, and the time required for recovery is 5 minutes or more.)”.

For the substance “ATLGSEDTWKPLSNPRNRDLFPRRLQAYFK-amide [Compound 35]”, for the setting “Table 3”, the “Hypotensive activity (dose/rat) 10 nmol” value was “−”; the “Hypotensive activity (dose/rat) 30 nmol” value was “++ (Strong activity (++): A decrease in systolic blood pressure is 20 mmHg or more and less than 30 mmHg, or the time required for recovery is less than 5 minutes.)”.

With “NRELFFRRLQAYFK-amide (NRELFFRRLQAYFK-NH2) [Compound 41]”, for the setting “Table 3”, the “Hypotensive activity (dose/rat) 10 nmol” value is on record as “−”; the “Hypotensive activity (dose/rat) 30 nmol” value was “++ (Strong activity (++): A decrease in systolic blood pressure is 20 mmHg or more and less than 30 mmHg, or the time required for recovery is less than 5 minutes.)”.

As to “LFFRRLQAY-amide (LFFRRLQAY-NH2) [Compound 25]”, where the note is “Table 2”, the “Hypotensive activity (dose/rat) 30 nmol” value is “−” and the “Hypotensive activity (dose/rat) 100 nmol” value is “+ (Activity observed (+): A decrease in systolic blood pressure is less than 20 mmHg.)”.

These data come from patent US20110039783A1, “PEPTIDE HAVING HYPOTENSIVE ACTIVITY” (DAIICHI SANKYO COMPANY LIMITED, priority 2007, published 2011).
